From US20230271949A1, “GLP-1R MODULATING COMPOUNDS” (ASCLETIS BIOSCIENCE CO., LTD., priority 2022, published 2023)

target: GLP-1R (Homo sapiens, UniProt P43220); assay: GLP-1R agonist cAMP stimulation assay (HTRF cAMP); assay type: cell-based; conditions: HEK293 cell line expressing GLP-1 target; HTRF cAMP agonist mode, 30 min at RT
Procedure, shortened: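 GLP-1R-expressing cells were stimulated with 10-point, 3-fold compound dilutions for 30 min at RT; HTRF cAMP detection reagents were then added for 60 min and the 665/615 ratio read. Ratios were converted to cAMP via a standard curve and % activity scaled between DMSO and top-concentration GLP-1(7-37) reference wells.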

Chain of GLP-1R (P43220 24-463): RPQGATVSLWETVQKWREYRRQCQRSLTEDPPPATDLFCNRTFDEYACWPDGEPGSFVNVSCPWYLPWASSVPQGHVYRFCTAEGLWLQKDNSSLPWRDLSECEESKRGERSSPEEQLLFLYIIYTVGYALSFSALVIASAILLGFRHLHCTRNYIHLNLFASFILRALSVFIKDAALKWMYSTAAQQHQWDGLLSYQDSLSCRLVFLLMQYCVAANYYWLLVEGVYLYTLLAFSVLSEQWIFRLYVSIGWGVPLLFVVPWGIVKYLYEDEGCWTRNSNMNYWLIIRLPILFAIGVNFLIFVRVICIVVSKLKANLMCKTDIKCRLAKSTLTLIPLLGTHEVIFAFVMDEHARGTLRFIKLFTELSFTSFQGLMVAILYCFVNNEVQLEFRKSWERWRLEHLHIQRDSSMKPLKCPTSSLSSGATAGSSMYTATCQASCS

| Structure (SMILES) | EC50 [nM] |
| --- | --- |
| N#Cc1ccc(COc2cccc(C3CCN(Cc4nc5cc(C(=O)Nc6ccc7[nH]nc(C(F)(F)F)c7c6)ccc5n4C[C@@H]4CCO4)CC3)n2)c(F)c1 [Compound 130] | 1.34 |
| O=C(Nc1ccc2c(c1)C1(CC1)C(=O)N2)c1ccc2c(c1)nc(CN1CC=C(c3cccc(OCc4ccc(Cl)cc4F)n3)CC1)n2C[C@@H]1CCO1 [Compound 143] | 0.75 |
| O=C(Nc1cc2[nH]c(=O)[nH]c2cc1F)c1ccc2c(c1)nc(CN1CCC(c3cccc(OCc4ccc(Cl)cc4F)n3)CC1)n2C[C@@H]1CCO1 [Compound 92] | 18.6 |
| O=C(Nc1ccc2nc(CN3CC=C(c4cccc(OCc5ccc(Cl)cc5F)n4)CC3)n(C[C@@H]3CCO3)c2c1)c1cc(C(F)(F)F)c2c(c1)C1(CC1)C(=O)N2 [Compound 288] | 3.87 |
| O=C(Nc1ccc2[nH]nc(C(F)(F)F)c2c1)c1ccc2c(c1)nc(CN1CC=C(c3cccc(OCc4ccc(Cl)cc4F)n3)CC1)n2C[C@@H]1CCO1 [Compound 161] | 0.87 |
| O=C(NCC(=O)N1C[C@@H](O)C[C@H]1C(=O)O)c1ccc2c(c1)nc(CN1CCC(c3cccc(OCc4ccc(Cl)cc4F)n3)CC1)n2C[C@@H]1CCO1 [Compound 45] | 1.39 |
| Cn1c(=O)[nH]c2ccc(NC(=O)c3ccc4c(c3)nc(CN3CC=C(c5cccc(OCc6ccc(Cl)cc6F)n5)CC3)n4C[C@@H]3CCO3)cc21 [Compound 146] | 24 |
| Cc1n[nH]c2c(C(F)F)cc(C(=O)Nc3ccc4c(c3)nc(CN3CC=C(c5cccc(OCc6ccc(Cl)cc6F)n5)CC3)n4C[C@@H]3CCO3)cc12 [Compound 220] | 0.44 |
| Cc1n[nH]c2c(F)cc(C(=O)Nc3ccc4nc(CN5CC=C(c6cccc(OCc7ccc(Cl)cc7F)n6)CC5)n(CC5CCO5)c4c3)cc12 (stereo not drawn) [Compound 277] | 0.76 |
| N#Cc1ccc(COc2cccc(C3=CCN(Cc4nc5cc(NC(=O)c6ccc7[nH]nc(C(F)(F)F)c7c6)ccc5n4C[C@@H]4CCO4)CC3)n2)c(F)c1 [Compound 232] | 1.26 |
| COCCn1c(CN2CCC(c3cccc(OCc4ccc(Cl)cc4F)n3)CC2)nc2cc(C(=O)NCc3ccc(O)c(C(=O)O)c3)ccc21 [Compound 37] | 106 |
| Cc1n[nH]c2c(Cl)cc(NC(=O)c3ccc4c(c3)nc(CN3CCC(c5cccc(OCc6ccc(Cl)cc6F)n5)CC3)n4C[C@@H]3CCO3)cc12 [Compound 110] | 4.45 |
| O=C(Nc1ccc2c(c1)nc(CN1CC=C(c3cccc(OCc4ccc(Cl)cc4F)n3)CC1)n2C[C@@H]1CCO1)c1ccc2[nH]ncc2c1 [Compound 204] | 0.63 |
| Cc1n[nH]c2c(F)cc(NC(=O)c3ccc4nc(CN5CC=C(c6cccc(OCc7ccc(Cl)cc7F)n6)CC5)n(CC5CCO5)c4c3)cc12 (stereo not drawn) [Compound 262] | 3.12 |
| C[C@H](NC(=O)c1ccc2c(c1)nc(CN1CCC(c3cccc(OCc4ccc(Cl)cc4F)n3)CC1)n2C[C@@H]1CCO1)C(=O)N1CC(F)(F)C[C@H]1C(=O)O [Compound 66] | 1.41 |
| Cc1cc(C(=O)Nc2ccc3c(c2)nc(CN2CC=C(c4cccc(OCc5ccc(Cl)cc5F)n4)CC2)n3C[C@@H]2CCO2)cc2cn[nH]c12 [Compound 199] | 0.47 |
| Cc1n[nH]c2cnc(NC(=O)c3ccc4c(c3)nc(CN3CC=C(c5cccc(OCc6ccc(Cl)cc6F)n5)CC3)n4C[C@@H]3CCO3)cc12 [Compound 192] | 9.87 |
| O=C(Nc1ccc2[nH]nc(F)c2c1)c1ccc2c(c1)nc(CN1CC=C(c3cccc(OCc4ccc(Cl)cc4F)n3)CC1)n2C[C@@H]1CCO1 [Compound 139] | 15.2 |
| COCCn1c(CN2CCC(c3cccc(OCc4ccc(Cl)cc4F)n3)CC2)nc2cc(C(=O)Nc3ccc(O)cc3)ccc21 [Compound 75] | > 10000 |
| O=C(Nc1ccc2c(c1)nc(CN1CC=C(c3cccc(OCc4ccc(Cl)cc4F)n3)CC1)n2CC1CCO1)c1ccn2ncc(Cl)c2c1 (stereo not drawn) [Compound 206] | 5.91 |
| O=C(O)CNC(=O)c1ccc2c(c1)nc(CN1CCC(c3cccc(OCc4ccc(Cl)cc4F)n3)CC1)n2C[C@@H]1CCO1 [Compound 50] | 34 |
| COCCn1c(C2CC23CCN(c2cccc(OCc4ccc(C#N)cc4F)n2)CC3)nc2ccc(C(=O)Nc3ccc4[nH]nc(C)c4c3)cc21 (stereo not drawn) [Compound 8] | 1.33 |
| Cc1n[nH]c2ccc(NC(=O)c3ccc4c(n3)nc(CN3CC=C(c5cccc(OCc6ccc(Cl)cc6F)n5)CC3)n4C[C@@H]3CCO3)cc12 [Compound 136] | 2.19 |
| Cc1cc(NC(=O)c2ccc3c(c2)nc(CN2CC=C(c4cccc5c4OC(C)(c4ccc(Cl)cc4F)O5)CC2)n3CC2CCO2)cc2c(C(F)(F)F)n[nH]c12 (stereo not drawn) [Compound 296] | 1.92 |

Results, then the compound that gave them:

| EC50 [nM] | Structure (SMILES) |
| --- | --- |
| 0.21 | Cc1cc(C(=O)Nc2ccc3c(c2)nc(CN2CC=C(c4cccc5c4OC(C)(c4ccc(Cl)cc4F)O5)CC2)n3C[C@@H]2CCO2)cc2c1NC(=O)C21CC1 (stereo partly drawn) [Compound 307] |
| 0.44 | Cc1cc2c(C#N)ccc(COc3cccc(C4=CCN(Cc5nc6cc(C(=O)Nc7cc(F)c8[nH]nc(C)c8c7)ccc6n5C[C@@H]5CCO5)CC4)n3)c2o1 [Compound 353] |
| 0.41 | Cc1n[nH]c2c(F)cc(NC(=O)c3ccc4c(c3)nc(CN3CC=C(c5cccc(OCc6cc(F)c(C#N)s6)n5)CC3)n4C[C@@H]3CCO3)cc12 [Compound 363] |
| 0.87 | Cc1cc(C(=O)Nc2ccc3c(c2)nc(CN2CC=C(c4cccc5c4OC(C)(c4ccc(Cl)cc4F)O5)CC2)n3C[C@@H]2CCO2)cc2[nH]c(=O)[nH]c12 (stereo partly drawn) [Compound 309] |
| 1.53 | Cc1n[nH]c2ccc(C(=O)Nc3ccc4c(c3)nc(Cc3cc(F)c(-c5cccc6c5OC(C)(c5ccc(Cl)cc5F)O6)cc3F)n4CC3CCO3)cc12 (stereo not drawn) [Compound 318] |
| 0.91 | Cc1cc(NC(=O)c2ccc3c(c2)nc(CN2CC=C(c4cccc5c4OC(C)(c4ccc(Cl)cc4F)O5)CC2)n3C[C@@H]2CCO2)cc2[nH]c(=O)[nH]c12 (stereo partly drawn) [Compound 303] |
| 10.1 | Cc1[nH]c2ccc(C(=O)Nc3ccc4c(c3)nc(CN3CC=C(c5cccc(OCc6ccc(Cl)cn6)n5)CC3)n4C[C@@H]3CCO3)cc2c1C [Compound 392] |
| 3.92 | Cc1n[nH]c2c(F)cc(NC(=O)c3ccc4c(c3)nc(CN3CC=C(c5cccc(OCc6ccc(C#N)c7c6ncn7C)n5)CC3)n4C[C@@H]3CCO3)cc12 [Compound 367] |
| 0.54 | Cc1n[nH]c2c(F)cc(C(=O)Nc3ccc4c(c3)nc(Cc3c(F)cc(-c5cccc6c5OC(C)(c5ccc(C#N)cc5F)O6)cc3F)n4CC3CCO3)cc12 (stereo not drawn) [Compound 316] |
| 3.19 | Cc1cc2c(C#N)ccc(COc3cccc(C4CCN(Cc5nc6cc(NC(=O)c7ccc8[nH]nc(C(F)(F)F)c8c7)ccc6n5C[C@@H]5CCO5)CC4)n3)c2o1 [Compound 371] |
| 0.99 | CC1(c2ccc(C#N)cc2F)Oc2cccc(C3=CCN(Cc4nc5cc(NC(=O)c6ccc7[nH]nc(C8CC8)c7c6)ccc5n4CC4CCO4)CC3)c2O1 (stereo not drawn) [Compound 312] |
| 2.95 | Cc1cc(-c2cccc3c2OC(C)(c2ccc(Cl)cc2F)O3)cc(F)c1Cc1nc2cc(NC(=O)c3ccc4[nH]nc(C5CC5)c4c3)ccc2n1CC1CCO1 (stereo not drawn) [Compound 324] |
| 110 | Fc1cc(Cl)ccc1COc1cccc(C2=CCN(Cc3nc4cc(-c5nc(-c6cc(C(F)(F)F)[nH]n6)co5)ccc4n3C[C@@H]3CCO3)CC2)n1 [Compound 398] |
| 0.64 | CC1(c2ccc(Cl)cc2F)Oc2cccc(-c3cc(F)c(Cc4nc5cc(NC(=O)c6cc(F)c7c(c6)C(C6CC6)C(=O)N7)ccc5n4C[C@@H]4CCO4)c(F)c3)c2O1 (stereo partly drawn) [Compound 326] |
| 3.65 | CC1(c2ccc(Cl)cc2F)Oc2cccc(C3=CCN(Cc4nc5cc(C(=O)Nc6ccc7[nH]nc(C(F)(F)F)c7c6)ccc5n4CC4CCO4)CC3)c2O1 (stereo not drawn) [Compound 297] |
